Experimental data taken from patent US20080003660A1, “Use of fast-release pristinamycin-type and polyether ionophore type antimicrobial agents in the production of ethanol” (priority 2006, published 2008).

Key:
[1] = pH in the fermenters; cited from earlier work
[2] = stability in water (hydrolysis); type: physicochemical
Method: In another embodiment at least a portion of said antimicrobial agent is added to the mash as a composition comprising particles comprising said substantially water insoluble antimicrobial agent(s), said composition being in the form of a slurry. In another embodiment at least a portion of said antimicrobial agent is added to the mash as a composition comprising particles comprising said substantially water insoluble antimicrobial agent(s) and having a weight mean average diameter of between 0.1 and 2 microns, said composition being in the form of a slurry. Many of the preferred antimicrobial agents have a slight instability when dissolved in water, which can be significant over long storage periods. […] Coating particles with protectorants will reduce stability problems. Placing the slurry in a […] substantially water-free material, be it fatty acids, surfactants, dispersants, solvents in which the antimicrobial agents have minimal solubility (called an “oil flowable slurry”), or any combination of the above can reduce loss of antimicrobial agent. […] An oil-flowable slurry can be readily prepared by milling the antimicrobial agents as described herein, but where the solvent replaces the water in the milling process. […]

[3] = type: physicochemical
Description: In one embodiment, the liquid phase of the slurry comprises water and up to 25%, for example between 15% and 23%, of ethanol. This ethanol will pre-dissolve a very small portion of the antimicrobial agents from the particles, giving the injected slurry a small but almost instantaneous punch.

[4] = dissolution of 0.1 gram powder in 4 liters of stirred water; type: physicochemical; settings: 5.2 to 10 micron average particle size, 0.1 gram in 4 liters water, continuously stirred
Description: The over-riding factor in controlling pests such as lactobacilli, however, is the rate of dissolution of small granular pristinamycin-type antimicrobial agents and polyether ionophore-type antimicrobial agents in water or mash. A 0.1 gram sample of a 5.2 to 10 micron average particle size virginiamycin was placed in a beaker with 4 liters of water, and the composition was continuously and vigorously stirred (providing very good mixing and turbulence). The presence of undissolved crystals was very evident. […] Such slow dissolution will reduce effectiveness of pulse treatments as it takes a long time for the added agents to become solubilized and effective, and will reduce the highest concentration of added agents resulting from a pulsed addition as some of the agent may be removed from the fermentator or other tank before the maximum amount of added agent is solubilized, and because some added agent may not dissolve at all. The solubility of monensin, virginiamycin, and similar pristinamycin-type antimicrobial agents and polyether ionophore-type antimicrobial agents in water is very low. Much more important, however, is the rate of dissolution of small granular pristinamycin-type antimicrobial agents and polyether ionophore-type antimicrobial agents in water. […]

[5] = test system: L. plantarum; assay: development of resistance test, 10 week duration; type: cell-based; settings: 10 week duration of the test
Description: One very effective control program involves the introduction of pristinamycin-type antimicrobial agents, and particularly virginiamycin, to the process. […] Usually, the “waste” byproduct, known as “Dried Distillers Grains with solubles (DDGS), is sold as animal feed, going 45% to dairy, 35% to beef, 15% to swine, and 5% to poultry industries. This is an important factor in the profitability of an ethanol production process, and the total amount of this byproduct produced per year is on the order of 3.5 million metric tons per year. The presence of residual antimicrobial agents in this material can adversely affect the value of this byproduct, as small residual amounts of antimicrobial agents in feed will promote the development of agent-resistant microorganisms. We have tested DDG samples from 8 major ethanol producers using virginiamycin to control microorganisms and found no detectable amount of virginiamycin in the DDG (<1 ppm via the validated Eurofins analysis and <1 ppb via an unvalidated experimental analytical procedure). […] Generally, however, the virginiamycin in mash is destroyed by drying so virginiamycin must be re-added to the feed if so desired. Other effective control programs employ polyether ionophore antimicrobial agents, which provide many of the benefits obtained with pristinamycin-type antimicrobial agents. […]

[6] = cited from earlier work

Row | Compound | inactivation at fermenter pH [1] | solubility in water/ethanol [3] | other results
1 | penicillin | partially inactivated | – | –
2 | virginiamycin | – | high solubility | stability when in water [2]: slow hydrolysis; time before only a few crystals remained visible [4]: on the order of an hour; time for L. plantarum to develop resistance [5]: no development of resistance; solubility in water [6]: 0.0001 grams/l
3 | [H]/N=C(/N)N[C@H]1[C@H](O)[C@@H](O)[C@H](O[C@@H]2O[C@@H](C)[C@](O)(C=O)[C@H]2O[C@@H]2O[C@@H](CO)[C@H](O)[C@@H](O)[C@@H]2NC)[C@@H](N/C(N)=N\[H])[C@@H]1O [streptomycin] | partially inactivated | – | –
4 | CC[C@@]1([C@@H]2O[C@@H]([C@H]3O[C@@](O)(CO)[C@H](C)C[C@@H]3C)C[C@@H]2C)CC[C@H]([C@]2(C)CC[C@]3(C[C@H](O)[C@@H](C)[C@@H]([C@@H](C)[C@@H](OC)[C@H](C)C(=O)O)O3)O2)O1 [monensin] | – | high solubility | –
